Each structure is given as a SMILES string.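 These data come from cells grown in 96-well plates and exposed to compound for 48 hours at five concentrations. GI50 = concentration required for 50% inhibition of growth. At the TGI there is no net growth.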

The results in this text go back to PubChem BioAssay (NCI).

What all share (test): NCI anticancer screen, dose series, 48 h
Experiment [1] has as its system HCC-2998 colon.
The subject of experiment [2] is IGROV1 ovarian.
Experiment [3] concerns M14 melanoma.
Experiment [4] has as its system MCF7 breast.
In experiment [5] the test system is MDA-MB-231 breast.
The test system of experiment [6] is NCI-H522 lung.
The subject of experiment [7] is OVCAR-8 ovarian.
The subject of experiment [8] is SK-MEL-28 melanoma.
Experiment [9] deals with SK-OV-3 ovarian.
Experiment [10] deals with SW-620 colon.

As for `COc1ccc2cn3c4ccc(O)cc4[nH]c(=O)c3c2c1`, the GI50 in experiment [1] is 0.301 µM; in experiment [2] it was 0.277 µM; in [3] it was 0.08 µM; in experiment [4] it was 0.236 µM; in experiment [5], 0.434 µM; in experiment [6], 0.031 µM. Besides, the GI50 is 0.302 µM in experiment [7], 0.0742 µM in [8], 0.0889 µM in [9] and 0.047 µM in experiment [10]. Also, the TGI amounted to 6.75 µM in [1]; 17.3 µM in [2]; 13.7 µM in [3]; 14.6 µM in [4]; 14.8 µM in experiment [5]; 1.05 µM in [6]. Besides, the TGI in experiment [7] is 18.1 µM; in experiment [8] it was 17.3 µM; in experiment [9], 13.9 µM; in experiment [10], 13.7 µM.

Regarding `C=C(C)C1Cc2cc(C(C)=O)ccc2O1` (stereo not drawn), the TGI in experiment [1], in experiment [2], in experiment [3], in experiment [4], in experiment [5] and in [6] was over 100 µM in each case. For the same compound, the TGI in experiment [7], in [8], in experiment [9] and in experiment [10] was over 100 µM each time.

Turning to `Nc1n[nH]c2cc(F)c([C@@H]3Nc4c(F)cc5[nH]ncc5c4[C@H]4C5CCC(C5)[C@@H]34)cc12` (stereo partly drawn), the GI50 is 0.118 µM in [1]; 0.13 µM in experiment [2]; 0.107 µM in experiment [3]; 0.118 µM in experiment [4]; 0.135 µM in experiment [5]; 0.0932 µM in [6]. Also, the GI50 in experiment [7] is 0.136 µM; in experiment [8], 3.75 µM; in [9], 0.275 µM; in [10], 0.141 µM. The TGI in experiment [1] was found to be 4.5 µM; in experiment [2], 5.04 µM; in [3] it was 5.83 µM; in experiment [4], 6.32 µM; in experiment [5], 5.05 µM; in experiment [6], 2.22 µM. For the same compound, the TGI in [7] is 15.2 µM; in [8], 13.4 µM; in [9], 20.7 µM; in [10], 6.72 µM.

For `COc1ccc(C(=O)c2cc(C)c(OC)c(C)c2)c(OC)c1OC(=O)C(Cl)Cl`, the GI50 in experiment [1] is 0.178 µM; in experiment [2], 0.464 µM; in [3], 0.0229 µM; in [4], 0.2 µM; in [5] it was 0.075 µM; in [6], 0.0286 µM. For the same compound, the GI50 in experiment [7] is 0.0456 µM; in [8] it was 0.0632 µM; in experiment [9], 0.163 µM; in experiment [10] it was 0.0377 µM. The TGI in experiment [1] is over 23.6 µM; in [2], over 100 µM; in [3], over 100 µM; in experiment [4], over 100 µM; in [5], over 100 µM; in [6] it was 1.2 µM. Besides, the TGI in experiment [7], in experiment [8], in experiment [9] and in experiment [10] was over 100 µM each time.

In the case of `CN1CCC(n2cnc(-c3ccc(F)cc3)c2-c2ccnc(Nc3ccccc3)n2)CC1`, the GI50 in experiment [1] was 6.76 µM; in experiment [2], 3.04 µM; in [3] it was 5.58 µM; in experiment [4], 1.83 µM; in experiment [5], 13.6 µM; in [6] it was 5.73 µM. The GI50 is 8.86 µM in [7], 5.19 µM in [8], 3.81 µM in [9] and 7.88 µM in experiment [10]. The TGI in experiment [1] is over 25 µM; in [2], over 13.1 µM; in [3], 14.7 µM; in [4], over 25 µM; in experiment [5] it was over 25 µM; in experiment [6], over 15.7 µM. Besides, the TGI in experiment [7] is over 25 µM; in experiment [8], 11 µM; in [9], over 25 µM; in [10] it was over 25 µM.

On to `N#CC1=C(N)Oc2c(ccc3cccnc23)C1c1ccccc1` (stereo not drawn), for which the TGI in experiment [1] is over 100 µM; in experiment [2], over 100 µM; in [3], over 41.5 µM; in [4], 58.1 µM; in [5], over 100 µM; in experiment [6] it was 12.7 µM. Besides, the TGI in experiment [7] was over 100 µM; in experiment [8] it was over 75.5 µM; in [9], over 100 µM; in [10] it was over 100 µM. For the same compound, the values for the GI50 in [4], in experiment [5] and in experiment [6] were 0.406 µM, 4.88 µM and 0.299 µM, respectively.

For the compound `O=C1c2ccccc2-c2c1c1ccc([N+](=O)[O-])cc1c(=O)n2CCN1CCOCC1`, the GI50 in experiment [1] was over 100 µM; in experiment [2], over 100 µM; in [3], over 100 µM; in [4] it was 43 µM; in [5], over 100 µM; in experiment [6], over 100 µM. In addition, the GI50 was over 100 µM in [7], over 100 µM in [8], over 100 µM in [9] and 40.5 µM in experiment [10]. In addition, the TGI in experiment [1], in experiment [2], in experiment [3], in [4], in [5] and in experiment [6] was over 100 µM throughout. In addition, the TGI in experiment [7], in experiment [8], in experiment [9] and in experiment [10] was over 100 µM each time.

Take `COc1cc2c3c(n(CCCN=[N+]=[N-])c(=O)c2cc1OC)-c1ccc(NC(C)=O)cc1C3=O`: the GI50 in [1] is over 50 µM; in experiment [2] it was 47.3 µM; in [3], over 50 µM; in experiment [4], over 50 µM; in experiment [5], over 50 µM; in experiment [6] it was over 50 µM. Moreover, the GI50 in [7], in experiment [8], in [9] and in experiment [10] was over 50 µM each time. For the same compound, the TGI in experiment [1], in experiment [2], in experiment [3], in [4], in experiment [5] and in experiment [6] was over 50 µM each time. The TGI in [7], in experiment [8], in experiment [9] and in experiment [10] was over 50 µM in each case.
